Data from PubChem BioAssay (NCI).
Several values for one entry are separate records, joined by “and”; a condition that tells them apart may be missing. Identical values can stand only once.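 In this assay, cells in 96-well plates receive the compound at five concentrations for 48 hours. Endpoints are linearly interpolated between the surrounding concentrations. GI50 marks 50% less growth. The concentration for full growth arrest is given as TGI.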

Tests used:
Experiment in all cases: NCI anticancer screen, dose series, 48 h
HCC-2998 colon = tested on: HCC-2998 colon
HOP-62 NSCLC = tested on: HOP-62 NSCLC
IGROV1 ovarian = tested on: IGROV1 ovarian
K-562 leukemia = tested on: K-562 leukemia
LOX IMVI melanoma = tested on: LOX IMVI melanoma
NCI/ADR-RES ovarian = tested on: NCI/ADR-RES ovarian
OVCAR-4 ovarian = tested on: OVCAR-4 ovarian
SF-539 CNS = tested on: SF-539 CNS
SK-MEL-2 melanoma = tested on: SK-MEL-2 melanoma
UACC-257 melanoma = tested on: UACC-257 melanoma

Question: `O=P1(O)c2ccccc2CSCc2ccccc21` was tested. Which TGI (HCC-2998 colon) did it give?
Answer: > 100 µM

Question: What about the TGI (HOP-62 NSCLC) of the same molecule?
Answer: > 100 µM

Question: And the TGI (IGROV1 ovarian)?
Answer: > 100 µM

Question: And the TGI (K-562 leukemia)?
Answer: > 100 µM

Question: And the TGI (LOX IMVI melanoma)?
Answer: > 100 µM

Question: And the TGI (NCI/ADR-RES ovarian)?
Answer: > 100 µM

Question: And the TGI (OVCAR-4 ovarian)?
Answer: > 100 µM

Question: What about the TGI (SF-539 CNS) of the same molecule?
Answer: > 100 µM

Question: What about the TGI (SK-MEL-2 melanoma) of the same molecule?
Answer: > 100 µM

Question: And the TGI (UACC-257 melanoma)?
Answer: > 100 µM

Question: For `Nc1nc(N)c2cc(Sc3ccc(Cl)cc3)ccc2n1`, which GI50 (HCC-2998 colon) is on record?
Answer: 1080 nM

Question: What about the TGI (HCC-2998 colon) of the same molecule?
Answer: 2.43 µM

Question: What about the GI50 (HOP-62 NSCLC) of the same molecule?
Answer: 1490 nM

Question: And the TGI (HOP-62 NSCLC)?
Answer: 14.9 µM

Question: And the GI50 (IGROV1 ovarian)?
Answer: 874 nM

Question: What about the TGI (IGROV1 ovarian) of the same molecule?
Answer: 18.7 µM

Question: And the GI50 (K-562 leukemia)?
Answer: 286 nM

Question: What about the TGI (K-562 leukemia) of the same molecule?
Answer: 1.86 µM

Question: What about the GI50 (LOX IMVI melanoma) of the same molecule?
Answer: 350 nM

Question: What about the TGI (LOX IMVI melanoma) of the same molecule?
Answer: 4.07 µM

Question: And the GI50 (NCI/ADR-RES ovarian)?
Answer: 793 nM

Question: And the TGI (NCI/ADR-RES ovarian)?
Answer: 16.1 µM

Question: And the GI50 (OVCAR-4 ovarian)?
Answer: 3910 nM

Question: What about the TGI (OVCAR-4 ovarian) of the same molecule?
Answer: 18.9 µM

Question: What about the GI50 (SF-539 CNS) of the same molecule?
Answer: 3100 nM

Question: What about the TGI (SF-539 CNS) of the same molecule?
Answer: 22.3 µM

Question: What about the GI50 (SK-MEL-2 melanoma) of the same molecule?
Answer: 2230 nM

Question: And the TGI (SK-MEL-2 melanoma)?
Answer: 5.53 µM

Question: And the GI50 (UACC-257 melanoma)?
Answer: 1.41 µM

Question: And the TGI (UACC-257 melanoma)?
Answer: 5.72 µM

Question: For `COC(=O)CC12CC(NC(=O)c3csc([C@@H](C[C@H](C(C)C)N(C)C(=O)[C@@H](NC(=O)[C@H]4CCCCN4C)C(C)C)OC(C)=O)n3)(C1)C2`, which GI50 (HCC-2998 colon) is on record?
Answer: 30.3 nM and 14.8 nM

Question: What about the TGI (HCC-2998 colon) of the same molecule?
Answer: > 33.3 µM

Question: And the GI50 (HOP-62 NSCLC)?
Answer: 4.98 nM and 8.38 nM

Question: What about the TGI (HOP-62 NSCLC) of the same molecule?
Answer: > 33.3 µM

Question: What about the GI50 (IGROV1 ovarian) of the same molecule?
Answer: 9.17 nM and 16.2 nM

Question: What about the TGI (IGROV1 ovarian) of the same molecule?
Answer: > 33.3 µM

Question: What about the GI50 (K-562 leukemia) of the same molecule?
Answer: 1.94 nM and 3.33 nM

Question: What about the TGI (K-562 leukemia) of the same molecule?
Answer: > 33.3 µM

Question: What about the GI50 (LOX IMVI melanoma) of the same molecule?
Answer: 4.46 nM and 12.1 nM

Question: What about the TGI (LOX IMVI melanoma) of the same molecule?
Answer: > 33.3 µM

Question: What about the GI50 (NCI/ADR-RES ovarian) of the same molecule?
Answer: 65.9 nM and 122 nM

Question: What about the GI50 (OVCAR-4 ovarian) of the same molecule?
Answer: 455 nM and 326 nM

Question: What about the TGI (OVCAR-4 ovarian) of the same molecule?
Answer: > 33.3 µM

Question: What about the GI50 (SF-539 CNS) of the same molecule?
Answer: 2.89 nM and 7.59 nM

Question: And the TGI (SF-539 CNS)?
Answer: 0.0198 µM and 0.0269 µM

Question: What about the GI50 (SK-MEL-2 melanoma) of the same molecule?
Answer: 4.41 nM and 9.55 nM

Question: And the TGI (SK-MEL-2 melanoma)?
Answer: > 33.3 µM

Question: And the GI50 (UACC-257 melanoma)?
Answer: 23.7 µM

Question: And the TGI (UACC-257 melanoma)?
Answer: > 33.3 µM

Question: `COc1ccc(-c2nc(Nc3ccc(F)cc3)nc(Nc3ccc4c(c3)nc(C)n4Cc3ccccc3)n2)cc1` was tested. Which GI50 (HCC-2998 colon) did it give?
Answer: 5850 nM

Question: And the TGI (HCC-2998 colon)?
Answer: > 100 µM

Question: And the GI50 (HOP-62 NSCLC)?
Answer: 8470 nM

Question: And the TGI (HOP-62 NSCLC)?
Answer: > 100 µM

Question: What about the GI50 (IGROV1 ovarian) of the same molecule?
Answer: 5410 nM

Question: What about the TGI (IGROV1 ovarian) of the same molecule?
Answer: > 100 µM

Question: What about the GI50 (K-562 leukemia) of the same molecule?
Answer: 3440 nM

Question: What about the TGI (K-562 leukemia) of the same molecule?
Answer: > 100 µM

Question: What about the GI50 (LOX IMVI melanoma) of the same molecule?
Answer: 3980 nM

Question: And the TGI (LOX IMVI melanoma)?
Answer: 57.6 µM

Question: What about the GI50 (NCI/ADR-RES ovarian) of the same molecule?
Answer: 3230 nM

Question: And the TGI (NCI/ADR-RES ovarian)?
Answer: 12.2 µM

Question: What about the GI50 (OVCAR-4 ovarian) of the same molecule?
Answer: 1590 nM

Question: What about the TGI (OVCAR-4 ovarian) of the same molecule?
Answer: > 100 µM

Question: What about the GI50 (SF-539 CNS) of the same molecule?
Answer: 4990 nM

Question: And the TGI (SF-539 CNS)?
Answer: > 100 µM

Question: And the GI50 (SK-MEL-2 melanoma)?
Answer: 3470 nM

Question: And the TGI (SK-MEL-2 melanoma)?
Answer: 11.9 µM

Question: And the GI50 (UACC-257 melanoma)?
Answer: 7.17 µM

Question: What about the TGI (UACC-257 melanoma) of the same molecule?
Answer: > 100 µM

Question: Which results are given for `Nc1ncnc2occ(-c3ccc(NC(=O)Nc4cc(C(F)(F)F)ccc4F)cc3)c12`?
Answer: GI50 (HCC-2998 colon): 8020 nM and 3980 nM; TGI (HCC-2998 colon): 19 µM and 8.87 µM; GI50 (HOP-62 NSCLC): 6320 nM and 2300 nM; TGI (HOP-62 NSCLC): 16.2 µM and 5.95 µM; GI50 (IGROV1 ovarian): 3820 nM and 1270 nM; TGI (IGROV1 ovarian): 14.1 µM and 7.18 µM; GI50 (K-562 leukemia): 2180 nM and 972 nM; TGI (K-562 leukemia): 19 µM and > 25 µM; GI50 (LOX IMVI melanoma): 4830 nM and 2690 nM; TGI (LOX IMVI melanoma): 14.9 µM and 10.2 µM; GI50 (NCI/ADR-RES ovarian): 5440 nM and 3090 nM; TGI (NCI/ADR-RES ovarian): 20.2 µM and 13.3 µM; GI50 (OVCAR-4 ovarian): 4200 nM and 2360 nM; TGI (OVCAR-4 ovarian): 17.1 µM and 14.6 µM; GI50 (SF-539 CNS): 2780 nM and 1090 nM; TGI (SF-539 CNS): 8.79 µM and 6.45 µM; GI50 (SK-MEL-2 melanoma): 6250 nM and 3360 nM; TGI (SK-MEL-2 melanoma): 12.3 µM and 8.36 µM; GI50 (UACC-257 melanoma): 6.19 µM and 4.11 µM; TGI (UACC-257 melanoma): 15.6 µM and 8.64 µM

Question: Which results are given for `CC12OC(C(=O)C13CC3)C1C(=O)c3cccc(O)c3C(=O)C12` (stereo not given)?
Answer: GI50 (HCC-2998 colon): 18500 nM; TGI (HCC-2998 colon): 46.7 µM; GI50 (HOP-62 NSCLC): 7210 nM; TGI (HOP-62 NSCLC): 19.7 µM; GI50 (IGROV1 ovarian): 12200 nM; TGI (IGROV1 ovarian): > 100 µM; GI50 (LOX IMVI melanoma): 5100 nM; TGI (LOX IMVI melanoma): > 100 µM; GI50 (NCI/ADR-RES ovarian): 6900 nM; TGI (NCI/ADR-RES ovarian): 25.3 µM; GI50 (OVCAR-4 ovarian): 3160 nM; TGI (OVCAR-4 ovarian): 12 µM; GI50 (SF-539 CNS): 5360 nM; TGI (SF-539 CNS): > 56.1 µM; GI50 (SK-MEL-2 melanoma): 47300 nM; TGI (SK-MEL-2 melanoma): > 100 µM; GI50 (UACC-257 melanoma): 19.6 µM; TGI (UACC-257 melanoma): 50.8 µM

Question: Which GI50 (HCC-2998 colon) does the source give for `COc1ncnn2ccc(-c3cnc4nc(C)n(Cc5nnc(C(C)F)o5)c4c3)c12` (stereo not given) here?
Answer: 308 nM

Question: And the TGI (HCC-2998 colon)?
Answer: 2.71 µM

Question: And the GI50 (IGROV1 ovarian)?
Answer: 235 nM

Question: And the TGI (IGROV1 ovarian)?
Answer: > 64.3 µM

Question: What about the GI50 (K-562 leukemia) of the same molecule?
Answer: 163 nM

Question: What about the TGI (K-562 leukemia) of the same molecule?
Answer: > 100 µM

Question: And the GI50 (LOX IMVI melanoma)?
Answer: 144 nM

Question: What about the TGI (LOX IMVI melanoma) of the same molecule?
Answer: 0.619 µM

Question: And the GI50 (NCI/ADR-RES ovarian)?
Answer: 409 nM

Question: And the TGI (NCI/ADR-RES ovarian)?
Answer: > 29.2 µM

Question: And the GI50 (OVCAR-4 ovarian)?
Answer: 278 nM

Question: What about the TGI (OVCAR-4 ovarian) of the same molecule?
Answer: 0.995 µM

Question: And the GI50 (SF-539 CNS)?
Answer: 218 nM

Question: What about the TGI (SF-539 CNS) of the same molecule?
Answer: 0.674 µM

Question: And the GI50 (SK-MEL-2 melanoma)?
Answer: 74.8 nM

Question: What about the TGI (SK-MEL-2 melanoma) of the same molecule?
Answer: 0.236 µM

Question: And the GI50 (UACC-257 melanoma)?
Answer: 0.265 µM

Question: What about the TGI (UACC-257 melanoma) of the same molecule?
Answer: > 100 µM
